{"source": "patent US6235748A", "about": "“Oxo-substituted compounds, process of making, and compositions and methods for inhibiting parp activity” (Guilford Pharmaceuticals Inc., priority 2000, dated 2001)", "key": {"[1]": {"tested_on": "ischemia and reperfusion of the heart in rabbits", "details": "cited from earlier work"}, "colitis in rats": {"tested_on": "colitis in rats", "details": "colitis induced by intraluminal trinitrobenzene sulfonic acid in 50% ethanol; cited from earlier work"}, "[2]": {"tested_on": "cell viability, glucose metabolism, and DNA synthesis", "details": "cited from earlier work"}, "[3]": {"tested_on": "NO-mediated vascular failure in endotoxic shock", "details": "in vivo; cited from earlier work"}, "recombinant human PARP": {"target": "T1, recombinant human PARP (Homo sapiens, UniProt P09874)", "T1 construct": "purchased Trevigen (Gaithersburg, Md.)", "T1 sequence (P09874 whole entry)": "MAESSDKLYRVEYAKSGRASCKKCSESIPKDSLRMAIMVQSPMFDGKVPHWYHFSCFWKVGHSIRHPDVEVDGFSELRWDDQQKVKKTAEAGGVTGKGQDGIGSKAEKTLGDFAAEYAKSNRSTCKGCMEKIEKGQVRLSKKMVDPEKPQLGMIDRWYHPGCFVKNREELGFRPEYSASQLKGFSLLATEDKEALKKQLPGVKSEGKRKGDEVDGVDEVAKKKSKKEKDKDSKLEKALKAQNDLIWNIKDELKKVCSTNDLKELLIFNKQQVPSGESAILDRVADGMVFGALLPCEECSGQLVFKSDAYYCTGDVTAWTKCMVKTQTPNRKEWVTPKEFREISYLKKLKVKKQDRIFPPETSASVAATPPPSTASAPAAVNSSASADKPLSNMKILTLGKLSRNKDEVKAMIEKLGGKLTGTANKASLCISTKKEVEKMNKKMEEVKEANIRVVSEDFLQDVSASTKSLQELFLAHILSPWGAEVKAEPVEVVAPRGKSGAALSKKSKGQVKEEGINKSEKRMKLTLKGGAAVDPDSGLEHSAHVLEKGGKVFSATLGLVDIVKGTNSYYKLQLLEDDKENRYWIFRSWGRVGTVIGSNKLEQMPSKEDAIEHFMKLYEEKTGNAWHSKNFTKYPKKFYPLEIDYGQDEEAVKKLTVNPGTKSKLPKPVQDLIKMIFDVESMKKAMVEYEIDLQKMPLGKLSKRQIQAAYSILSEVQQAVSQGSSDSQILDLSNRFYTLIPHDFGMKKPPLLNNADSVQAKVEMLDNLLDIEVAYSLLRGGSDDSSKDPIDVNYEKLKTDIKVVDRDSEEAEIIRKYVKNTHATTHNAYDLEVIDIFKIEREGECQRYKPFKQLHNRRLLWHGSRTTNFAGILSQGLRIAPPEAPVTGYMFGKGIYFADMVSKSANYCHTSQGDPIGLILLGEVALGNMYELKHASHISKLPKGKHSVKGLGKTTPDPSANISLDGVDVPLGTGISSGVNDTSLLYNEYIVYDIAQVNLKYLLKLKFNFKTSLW", "test": "PARP enzyme assay with purified recombinant human PARP, [3H]NAD", "type": "biochemical", "details": "TABLE VII; 25° C., 15 minutes; read-out: Approximate IC50's", "protocol": "The reaction was initiated by incubating the mixture at 25° C. After 15 minutes' incubation, the reaction was terminated by adding 500 microliters of ice cold 20% (w/v) trichloroacetic acid. The precipitate formed was transferred onto a glass fiber filter (Packard Unifilter-GF/B) and washed three times with ethanol. After the filter was dried, the radioactivity is determined by scintillation counting."}, "[4]": {"test": "Arterial blood gases and mean arterial blood pressure in the focal cerebral ischemia model", "type": "in vivo, rat (Long-Evans)", "details": "for MABP, ischemia: average during occlusion; for MABP, steady state: just prior to occlusion", "experimental": "(§1) Focal cerebral ischemia was produced by cauterization of the right distal MCA (middle cerebral artery) with bilateral temporary common carotid artery occlusion in male Long-Evans rats for 90 minutes. All procedures performed on the animals were approved by the University Institutional Animal Care and Use Committee of the University of Pennsylvania. A total of 42 rats (weights: 230-340 g) obtained from Charles River were used in this study. The animals fasted overnight with free access to water prior to the surgical procedure.\n(§2) Two hours prior to MCA occlusion, varying amounts (control, n=14; 5 mg/kg, n=7; 10 mg/kg, n=7; 20 mg/kg, n=7; and 40 mg/kg, n=7) of the PARP inhibitor compound, 3,4-dihydro-5-[4-(1-piperidinyl)-butoxy]-1(2H)-isoquinolinone (\"DPQ\"), were dissolved in dimethyl sulfoxide (DMSO) using a sonicator. A volume of 1.28 ml/kg of the resulting solution was injected intraperitoneally into fourteen rats.\n(§3) The rats were then anesthetized with halothane (4% for induction and 0.8%-1.2% for the surgical procedure) in a mixture of 70% nitrous oxide and 30% oxygen. The body temperature was monitored by a rectal probe and maintained at 37.5±0.5° C. with a heating blanket regulated by a homeothermic blanket control unit (Harvard Apparatus Limited, Kent, U.K.). A catheter (PE-50) was placed into the tail artery, and arterial pressure was continuously monitored and recorded on a Grass polygraph recorder (Model 7D, Grass Instruments, Quincy, Mass.). Samples for blood gas analysis (arterial pH, PaO2 and PaCO2) were also taken from the tail artery catheter and measured with a blood gas analyzer (ABL 30, Radiometer, Copenhagen, Denmark). Arterial blood samples were obtained 30 minutes after MCA occlusion.\nA \"steady state\" MABP was taken following completion of the surgical preparation, just prior to occlusion; an \"ischemia\" MABP was taken as the average MABP during occlusion."}, "[5]": {"tested_on": "focal cerebral ischemia in male Long-Evans rats", "test": "Infarct in focal cerebral ischemia: distal MCA cauterization with bilateral temporary CCA occlusion", "type": "in vivo, rat (Long-Evans)", "details": "for damaged (infarct) volume: mean±SD; for cross-sectional infarct area distribution, result in words: FIG. 1", "experimental": "as §1, §2, §3\n(§4) The head of the animal was positioned in a stereotaxic frame, and a right parietal incision between the right lateral canthus and the external auditory meatus was made. Using a dental drill constantly cooled with saline, a 3 mm burr hole was prepared over the cortex supplied by the right MCA, 4 mm lateral to the sagittal suture and 5 mm caudal to the coronal suture. The dura mater and a thin inner bone layer were kept, care being taken to position the probe over a tissue area devoid of large blood vessels. The flow probe (tip diameter of 1 mm, fiber separation of 0.25 mm) was lowered to the bottom of the cranial burr hole using a micromanipulator. The probe was held stationary by a probe holder secured to the skull with dental cement. The microvascular blood flow in the right parietal cortex was continuously monitored with a laser Doppler flowmeter (FloLab, Moor, Devon, U.K., and Periflux 4001, Perimed, Stockholm, Sweden).\nFocal cerebral ischemia was produced by cauterization of the distal portion of the right MCA with bilateral temporary common carotid artery (CCA) occlusion by the procedure of Chen et al., \"A Model of Focal Ischemic Stroke in the Rat: Reproducible Extensive Cortical Infarction\", Stroke, 17:738-43 (1986) and/or Liu et al., \"Polyethylene Glycol-conjugated Superoxide Dismutase and Catalase Reduce Ischemic Brain Injury\", Am. J. Physiol., 256:H589-93 (1989), both of which are hereby incorporated by reference.\nSpecifically, bilateral CCA's were isolated, and loops made from polyethylene (PE-10) catheter were carefully passed around the CCA's for later remote occlusion. The incision made previously for placement of the laser doppler probe was extended to allow observation of the rostral end of the zygomatic arch at the fusion point using a dental drill, and the dura mater overlying the MCA was cut. […] The burr hole was covered with a small piece of Gelform, and the wound was sutured to maintain the brain temperature within the normal or near-normal range.\nAfter 90 minutes of occlusion, the carotid loops were released, the tail arterial catheter was removed, and all of the wounds were sutured. Gentamicin sulfate (10 mg/ml) was topically applied to the wounds to prevent infection. […]"}, "[6]": {"tested_on": "right parietal cortex blood flow", "test": "Microvascular blood flow in right parietal cortex by laser Doppler flowmetry", "type": "in vivo, rat (Long-Evans)", "details": "for relative blood flow in the right parietal cortex on occlusion: control 20.8±7.7%", "experimental": "as §4\nSince the blood flow values obtained from the laser doppler were in arbitrary units, only percent changes from the baseline (prior to occlusion) were reported."}, "tumor cells": {"tested_on": "tumor cells", "details": "synergy: co-treatment with an alkylating drug; cited from earlier work"}}, "note": "pIC50: −log10 of the molar value. Entries after “also recorded” stand apart in the source; their conditions may differ."}
{"compound": "NC(=O)c1cccc(N)c1", "note": "[3-aminobenzamide]", "values": [{"measurement": "reduction in infarct size in the heart", "setting": "[1]; 10 mg/kg, single injection one minute before occlusion or one minute before reperfusion", "result": "32-42%"}, {"measurement": "effect on colitis, result in words", "setting": "colitis in rats", "result": "reduced the inflammatory response and restored the morphology and the energetic status of the distal colon"}, {"measurement": "effect on other metabolic processes, result in words", "setting": "[2]", "result": "shown to affect cell viability, glucose metabolism, and DNA synthesis"}]}
{"compound": "NC(=O)c1cccnc1", "note": "[nicotinamide]", "values": [{"measurement": "effect on vascular failure in endotoxic shock, result in words", "setting": "[3]", "result": "protects against delayed, NO-mediated vascular failure in endotoxic shock"}]}
{"compound": "NC(=O)c1ccccc1", "note": "[benzamide]", "values": [{"measurement": "effect on other metabolic processes, result in words", "setting": "[2]", "result": "shown to affect cell viability, glucose metabolism, and DNA synthesis"}]}
{"compound": "O=c1[nH]c2cc(F)ccc2c2ccccc12", "values": [{"measurement": "pIC50", "setting": "recombinant human PARP", "result": "~6.70"}]}
{"compound": "Oc1cccc2c(O)nccc12", "note": "[1,5-dihydroxy-isoquinoline]", "values": [{"measurement": "reduction in infarct size", "setting": "[1]; 1 mg/kg", "result": "38-48%"}]}
{"compound": "O=C1NCCc2c(OCCCCN3CCCCC3)cccc21", "note": "[DPQ, 3,4-dihydro-5-[4-(1-piperidinyl)-butoxy]-1(2H)-isoquinolinone]", "values": [{"measurement": "PaCO2", "setting": "[4]; 5 mg/kg-treated group", "result": 38.0, "unit": "mm Hg"}, {"measurement": "PaO2", "setting": "[4]; 5 mg/kg-treated group", "result": "126 ± 20", "unit": "mm Hg"}, {"measurement": "arterial pH", "setting": "[4]; 5 mg/kg-treated group", "result": 7.36}, {"measurement": "MABP, ischemia", "setting": "[4]; 5 mg/kg-treated group, p < 0.01 vs steady state", "result": "91 ± 12", "unit": "mm Hg"}, {"measurement": "MABP, steady state", "setting": "[4]; 5 mg/kg-treated group", "result": "78 ± 5", "unit": "mm Hg"}, {"measurement": "PaCO2", "setting": "[4]; 10 mg/kg-treated group", "result": 39.3, "unit": "mm Hg"}, {"measurement": "PaO2", "setting": "[4]; 10 mg/kg-treated group", "result": "125 ± 16", "unit": "mm Hg"}, {"measurement": "arterial pH", "setting": "[4]; 10 mg/kg-treated group", "result": 7.34}, {"measurement": "MABP, ischemia", "setting": "[4]; 10 mg/kg-treated group, p < 0.05 vs steady state", "result": "90 ± 14", "unit": "mm Hg"}, {"measurement": "MABP, steady state", "setting": "[4]; 10 mg/kg-treated group", "result": "80 ± 9", "unit": "mm Hg"}, {"measurement": "PaCO2", "setting": "[4]; 20 mg/kg-treated group", "result": 41.3, "unit": "mm Hg"}, {"measurement": "PaO2", "setting": "[4]; 20 mg/kg-treated group", "result": "122 ± 14", "unit": "mm Hg"}, {"measurement": "arterial pH", "setting": "[4]; 20 mg/kg-treated group", "result": 7.35}, {"measurement": "MABP, ischemia", "setting": "[4]; 20 mg/kg-treated group, p < 0.01 vs steady state", "result": "91 ± 12", "unit": "mm Hg"}, {"measurement": "MABP, steady state", "setting": "[4]; 20 mg/kg-treated group", "result": "79 ± 10", "unit": "mm Hg"}, {"measurement": "PaCO2", "setting": "[4]; 40 mg/kg-treated group", "result": 39.5, "unit": "mm Hg"}, {"measurement": "PaO2", "setting": "[4]; 40 mg/kg-treated group", "result": "137 ± 17", "unit": "mm Hg"}, {"measurement": "arterial pH", "setting": "[4]; 40 mg/kg-treated group", "result": 7.33}, {"measurement": "MABP, ischemia", "setting": "[4]; 40 mg/kg-treated group, p < 0.05 vs steady state", "result": "88 ± 12", "unit": "mm Hg"}, {"measurement": "MABP, steady state", "setting": "[4]; 40 mg/kg-treated group", "result": "78 ± 4", "unit": "mm Hg"}, {"measurement": "MABP, result in words", "setting": "[4]; all five groups including control", "result": "MABP was significantly elevated following occlusion in all five groups, there were no significant differences in MABP during the occlusion period among the groups"}, {"measurement": "arterial blood gases (PaO2, PaCO2 and pH), result in words", "setting": "[4]; control and treated groups", "result": "within the physiological range in the control and treated groups with no significant differences in these parameters among the five groups"}, {"measurement": "damaged (infarct) volume", "setting": "[5]; 5 mg/kg i.p. 2 h before and 2 h after MCA occlusion, p<0.001 vs control (165.2±34.0 mm^3)", "result": "106.7±23.2", "unit": "mm^3"}, {"measurement": "damaged (infarct) volume", "setting": "[5]; 10 mg/kg i.p. 2 h before and 2 h after MCA occlusion, p<0.001 vs control (165.2±34.0 mm^3)", "result": "76.4±16.8", "unit": "mm^3"}, {"measurement": "damaged (infarct) volume", "setting": "[5]; 20 mg/kg i.p. 2 h before and 2 h after MCA occlusion, p<0.01 vs control (165.2±34.0 mm^3)", "result": "110.2±42.0", "unit": "mm^3"}, {"measurement": "infarct volume, result in words", "setting": "[5]; 40 mg/kg", "result": "no significant difference between the control and the 40 mg/kg-treated group"}, {"measurement": "damaged (infarct) volume", "setting": "[5]; 40 mg/kg i.p. 2 h before and 2 h after MCA occlusion, not significant vs control (165.2±34.0 mm^3)", "result": "135.6±44.8", "unit": "mm^3"}, {"measurement": "damaged volume compared to control, result in words", "setting": "[5]; 5, 10 and 20 mg/kg", "result": "significant decrease in the damaged volume"}, {"measurement": "infarct volume, result in words", "setting": "[5]; overall / dose comparison", "result": "significant differences between the 5 mg/kg-treated group and the 10 mg/kg-treated group (p<0.02), and between the 10 mg/kg-treated group and the 40 mg/kg-treated group (p<0.01); also recorded: substantial reduction in infarct volume"}, {"measurement": "relative blood flow in the right parietal cortex on occlusion", "setting": "[6]; 5 mg/kg-treated group (n=7)", "result": "18.7±7.4 % of the baseline"}, {"measurement": "relative blood flow in the right parietal cortex on occlusion", "setting": "[6]; 10 mg/kg-treated group (n=7)", "result": "21.4±7.7 % of the baseline"}, {"measurement": "relative blood flow in the right parietal cortex on occlusion", "setting": "[6]; 40 mg/kg-treated group (n=7)", "result": "19.3±11.2 % of the baseline"}, {"measurement": "blood flow response to occlusion, result in words", "setting": "[6]; control, 5, 10 and 40 mg/kg", "result": "no significant differences in the blood flow response to occlusion among the four groups"}]}
{"compound": "O=C1NCCc2c(OCCCCN3CCCCC3)cccc21", "note": "[3,4-dihydro-5-[4-(1-piperidinyl)-butoxy]-1(2H)-isoquinolinon] [3,4-dihydro-5-[4-(1-piperidinyl)-butoxy]-1(2H)-isoquinolinone]", "values": [{"measurement": "cross-sectional infarct area distribution, result in words", "setting": "[5]; 5 mg/kg and 20 mg/kg", "result": "fell approximately halfway between the control and the 10 mg/kg curves"}, {"measurement": "infarct volume, result in words", "setting": "[5]; 40 mg/kg", "result": "less neuroprotective"}, {"measurement": "cross-sectional infarct area distribution, result in words", "setting": "[5]; 40 mg/kg", "result": "close to the control"}, {"measurement": "infarct volume, result in words", "setting": "[5]; overall / dose comparison", "result": "U-shaped dose-response curve"}]}
{"compound": "O=c1[nH]c2ccccc2c2ccccc12", "note": "[6(5H)-Phenanthridinone]", "values": [{"measurement": "effect on tumor cells, result in words", "setting": "tumor cells", "result": "reduced proliferation of tumor cells, and a marked synergistic effect when tumor cells are co-treated with this compound and an alkylating drug"}]}
